Values quoted from earlier work as cited in patent US4199515A (priority 1978, dated 1980).

System: gram-positive bacteria
Conditions: background statement

## CO[C@@H]1[C@H](C)[C@H]([C@]2(C)CC[C@H]([C@]3(C)CC[C@]4(C[C@H](OC)[C@@H](C)[C@@H]([C@@H](C)[C@H]5O[C@@](O)([C@H](C)C(=O)O)[C@H](C)[C@@H](OC)[C@H]5C)O4)O3)O2)O[C@H]1[C@H]1O[C@](C)(O)[C@H](C)[C@@H](OC)[C@@H]1C [Lonomycin]
  activity to gram positive bacteria: activity to gram positive bacteria
